# Laboratory results published in patent US20260248947A1, “Methods of Treating Cancer Using Anti-HER2 Antibody-Drug Conjugates and HER2 Kinase Inhibitors” (Seagen Inc., priority 2023, published 2026).
# Experiments:
# [1] = test system: HER2-low breast cancer patient-derived xenograft (PDX) models CTG-1520 (IHC 0), CTG-0012 (IHC 1+), CTG-0670 (IHC 2+); assay: Tumor volume in HER2-low breast cancer PDX models; format: in vivo, Mice; settings: single intravenous dose 0.3, 1, 2 or 5 mg/kg; in a subset of the models
# Protocol: First, the anti-tumor effect of DV as a monotherapy was tested in three PDX models with varying HER2 expression levels. Three breast cancer PDX models were used: CTG-1520 (IHC 0), CTG-0012 (IHC 1+), and CTG-0670 (IHC 2+). Mice (n=10/group) were treated with the indicated concentrations of DV (intravenous, single dose), and tumor volume was measured over time. […] Dashed lines represent carry-over of tumor volumes from individual animals that were removed from study when their tumors reached maximum allowable size (less than 3/10 animals per group).
# Next, DV and tucatinib were tested as monotherapies and in combination in the three PDX models. Mice (n=10/group) were treated with the indicated concentrations of tucatinib (50 mg/kg oral, twice daily), DV (1 or 2 mg/kg, intravenous, single dose), or a combination of tucatinib and DV, and tumor volume was measured over time. […] Dotted lines represent carry-over of tumor volumes from individual animals that were removed from study when their tumors reached maximum allowable size (less than 3/10 animals per group).
# [2] = test system: GA3102 (IHC 3+) gastric cancer PDX; assay: Tumor volume / normalized AUC in gastric cancer PDX model; format: in vivo, Mice; settings: GA3102 (FIGS. 12K, 12L); tucatinib 50 mg/kg oral twice daily, DV 2 mg/kg intravenous single dose
# Source text: (§1) FIGS. […] show the effects of combining DV and tucatinib vs. DV as a single agent in gastric cancer patient-derived xenograft (PDX) models with varying HER2 expression levels: GA13745 (IHC 1+; FIGS. 12A, 12B), GA6821 (IHC 1+; FIGS. 12C, 12D), CTG-0148 (IHC 1+; FIGS. 12E, 12F), CTG-3036 (IHC 2+; FIGS. 12G, 12H), CTG-3033 (IHC 3+; FIGS. 12I, 12J), and GA3102 (IHC 3+; FIGS. 12K, 12L). Treatment with T-DXd, a HER2-directed ADC, was also included in the study. Tumor volume data shown as mean±SEM. For each model, tumor growth was evaluated using a normalized area under the curve (AUC) metric (see, Guo, S. et al. (2019) BMC Cancer 19, 718) (FIGS. 12A, 12C, 12E, 12G, 12I, 12K). AUC was calculated for each model for the duration of the experiment, then compared by one-way ANOVA followed by Tukey's post-hoc test. The box-and-whisker plots represent the median and range for each treatment group (FIGS. 12B, 12D, 12F, 12H, 12J, 12L). […]
# (§2) DV and tucatinib were tested as monotherapies and in combination in PDX models with varying HER2 expression levels. […] Mice (n=10/group) were treated with tucatinib (50 mg/kg oral, twice daily), DV (2 mg/kg, intravenous, single dose), a combination of tucatinib and DV, or T-DXd (2 mg/kg, intravenous, single dose), and tumor volume was measured over time.
# [3] = test system: GA6821 (IHC 1+) gastric cancer PDX; assay: as above; format: in vivo, Mice; settings: GA6821 (FIGS. 12C, 12D); tucatinib 50 mg/kg oral twice daily, DV 2 mg/kg intravenous single dose
# Source text: as §1, §2
# HCC-38 = assay: 144-hour CellTiter-Glo cytotoxicity assay, DV and T-DXd; format: cell-based; settings: HCC-38, 20,000 HER2 receptors/cell, 1-10,000 ng/mL
# Protocol: (§3) DV and T-DXd were evaluated against breast cancer cell lines spanning a range of HER2 expression levels (calculated by quantitative flow cytometry): HCC-1954 with 1,259,000 HER2 receptors/cell, MDA-MB-361 with 60,000 HER2 receptors/cell, and HCC-38 with 20,000 HER2 receptors/cell. Drugs were titrated (1-10,000 ng/mL), and viability was tested in a 144-hour CellTiter-Glo cytotoxicity assay.
# MDA-MB-361 = assay: as above; format: cell-based; settings: MDA-MB-361, 60,000 HER2 receptors/cell, 1-10,000 ng/mL
# Protocol: as §3
# HCC-1954 = assay: as above; format: cell-based; settings: HCC-1954, 1,259,000 HER2 receptors/cell, 1-10,000 ng/mL
# Protocol: as §3
substance,measurement,setting,value
disitamab vedotin [DV],anti-tumor effects (tumor volume) of DV monotherapy,[1],anti-tumor effects in a dose-dependent manner
same,anti-tumor activity compared to untreated control (normalized AUC tumor growth metric),[2],significant anti-tumor activity
same,anti-tumor activity compared to untreated control (normalized AUC tumor growth metric),[3],significant anti-tumor activity
same,single-agent cytotoxic activity as compared to T-DXd,HCC-38,more potent single-agent cytotoxic activity
same,single-agent cytotoxic activity as compared to T-DXd,MDA-MB-361,more potent single-agent cytotoxic activity
same,single-agent cytotoxic activity as compared to T-DXd,HCC-1954,more potent single-agent cytotoxic activity
